What all share (format): in vivo
The subject of series [1] is neointimal lesion development in the rat carotid artery. Description: Inhibition of neointimal lesion development in the rat carotid artery (balloon catheterization test). Particulars: for Maximal intimal height: mean ± SD. The procedure: The anti-atherogenic activity has been confirmed also by measurement of the inhibition of neointimal lesion development in the rat carotid artery (balloon catheterization test, essentially as published in A. W. Clowes et al., Lab. Invest. 49 [1983]208-215).
In a first experiment a group of 12 rats was given PN 250 μg/kg/day in 10% ethanol-water s.c. A control group of 9 animals was non-injected and a further control group of 7 animals was vehicle-injected. Animals were randomized into 3 groups for catheterization and were weighed every other day throughout the study. Rats were anesthetized with ether inhalation. The […] region was shaved and the external branch of the left common carotid artery was isolated by an incision from the lower mandible to the clavicle, followed by retracting the submaxillary gland (lateral) and several muscle bundles including the sternohyoideus (medial), sternomastoideus (lateral) and digastricus posterior belly (lateral). […] Lidocaine was applied to vasodilate during catheter introduction. Following an incision with iris scissors, a Fogarty arterial embolectomy catheter (No. 2F) was inserted into the external branch of the carotid, passed into the aortic arch and slightly withdrawn to assure inflation of the catheter within the common carotid artery. The catheter was inflated using approximately 900 mmHg air pressure, drawn distally and deflated. This was repeated three times to assure complete de-endothelialization of the common carotid. The catheter was removed, the artery ligated and the incision closed. Under these conditions the carotid is completely de-endothelialized.
Animals were sacrificed 14 days after ballooning in the same sequence as the catheterization. Thirty minutes before fixation the animals were injected with a 2.25% Evan's Blue dye solution (1.5 mg/kg iv) to differentiate between the neointimal and re-endothelialized areas. Areas of the carotid that have endothelial regrowth exclude the dye and appear white. The remaining areas that lack endothelium are stained blue. Whole body (beating heart) perfusion fixations (90-110 mmHg) were then performed on anesthetized (sodium pentobarbital, 50.0 mg/kg ip) animals using 200 ml of 1% glutaraldehyde in 0.15M sodium cacodylate buffer (pH 7.4, 37° C., 410 mOsm) followed by 400 ml of 3% glutaraldehyde in 0.15M sodium cacodylate. The entry site of the fixative was a puncture in the left ventricle, with efflux collected by vacuum suction from the right atrium. The thoracic aorta flow was restricted to optimize carotid perfusion. Successful fixation was judged by upper body rigidity and an absence of blood from the large arteries.
In a second experiment the procedure as described above was followed, with groups consisting of non-injected controls (n=8), animals treated with PY (n=5) or PN (n=8). Animals received drug for 2 days before catheterization and to the conclusion of the study (14 days). PY and PN were given at 1.0 mg/kg in 10% EtOH-water s.c. All animals (controls and drug-treated) were randomized into 3 groups for catheterization.
After each experiment the fixed carotid was removed and cut into 3 segments (distal, central, proximal). Tissue processing of only the central segment included 18 hours in 3% buffered glutaraldehyde, buffer rinsing, dehydration in an ascending ethanol series and infiltration with Spurr's resin. The samples were embedded with cross-sectional orientation so that sectioning (0.5 μm) would include blue areas which have not re-endothelialized and show continued proliferative responses. A two-step polychromatic stain utilizing toluidine blue and 1.0% basic fuchsin rendered histological differentiation to nuclear, cytoplasmic and extracellular connective matrix components.
All light microscopic histology slides were randomized, encoded and evaluated utilizing a Zeiss standard microscope and the Videoplan computerized image analyzer. Vessel measurements included maximum lesion height. […]

Series [2] has as its system ionized calcium concentration in the blood. Briefly: Rabbit test: ionized calcium in blood by calcium ion selective electrode. Particulars: PN alone. The procedure:
(§1) The effect of the compounds of the invention in lowering calcium levels is indicated in any standard animal test for hypercalcemic activity. In one test the compound is administered to rabbits (e.g. ca. 1 kg in weight) either as a suspension e.g. 0.1 to 5 mg (e.g. 0, 1 mg) per ml of solution (i.e. blood plasma with ca. 1-5% alcohol) and 0.1-5 mg/kg animal body weight by intravenous infusion (0.5 ml per hour) or orally e.g. 1 to 5 mg/kg animal body weight as a suspension in distilled water. A significant lowering of calcium ions is observed using standard measuring techniques for calcium ions in the blood, e.g. using a calcium ion selective electrode, or by photometric methods.
One method for measuring calcium ion concentrations is as follows: […]
The concentration of ionized calcium in the blood is measured potentiometrically as follows: The difference in potential between the reference electrode and the Ca^2+ -selective electrode is measured differentially relative to the common electrode. The difference is amplified and the analogue signal produced by the amplifier is processed by a digital voltmeter and continuously recorded as a function of time, the difference in voltage being proportional to the Ca^2+ concentration. […]

In a further series the test system is total calcium. Briefly: Rabbit intravenous experiment repeated, total calcium measured photometrically. Particulars: intravenous infusion, photometric. As to the method:
as §1
The intravenous experiment is repeated measuring total calcium photometrically. Drop in calcium levels over 11/2 hours=23%, over 21/2 hours=30%.

Setting [3] is: Expt. 2, 1.0 mg/kg s.c. from 2 days before catheterization to day 14, controls 72.4 ± 17.4.

Each structure is given as a SMILES string.

As for `COC(=O)C1=C(C)NC(C)=C(C(=O)OC(C)C)C1c1cccc2nonc12` (centres unmarked) [PN, 4-(2,1,3-benzoxadiazol-4yl)-1,4-dihydro-2,6-dimethyl-3-methoxycarbonyl-pyridine-5-carboxylic acid isopropyl ester], the “Inhibition of lesion development” value in series [1] (Expt. 1, 0.25 mg/kg/d) worked out at 26%; in series [1] (Expt. 2, 1.0 mg/kg/d), 46%. Also, the Maximal intimal height in series [1] (Expt. 1, 0.25 mg/kg/day s.c., 14 days after ballooning, controls 84.9 ± 21.3) worked out at 63.2 ± 19.9 μm; in series [1] (setting [3]), 38.9 ± 22.0 μm. For the same compound, the “Lowering of ionized calcium” value is on record as 10-20% in series [2] (intravenous infusion, 0.5 mg/0.5/over 1 hour) and 5-10% in series [2] (oral 1 mg/kg). The “Drop in calcium levels (total calcium)” value in the series on total calcium (over 11/2 hours) amounted to 23%; in the series with total calcium (over 21/2 hours) it was 30%.

`CCOC(=O)C1=C(C)NC(C)=C(C(=O)OCC)C1c1cccc2nonc12` [PY, 4-(2,1,3-benzoxadiazol-4-yl)-1,4-dihydro-2,6-dimethylpyridine-3,5-dicarboxylic acid diethyl ester]: the Maximal intimal height in series [1] (setting [3]) came to 58.6 ± 18.1 μm. Also, the “Inhibition of lesion development” value in series [1] (Expt. 2, 1.0 mg/kg/d) amounted to 19%. Besides, in series [1] (rats, s.c., all doses used (0.25 and 1.0 mg/kg)), the Tolerability entry is “tolerated at all doses used”.
